This note sets out measurements from article PMC9174938, “1,4-Dihydropyridine as a Promising Scaffold for Novel Antimicrobials Against Helicobacter pylori” (Frontiers in Microbiology, 2022).

The assay deals with T1, HsrA (HP1043) (Helicobacter pylori, UniProt O25684).
T1 construct: gene HP_1043
T1 sequence (O25684 1-223): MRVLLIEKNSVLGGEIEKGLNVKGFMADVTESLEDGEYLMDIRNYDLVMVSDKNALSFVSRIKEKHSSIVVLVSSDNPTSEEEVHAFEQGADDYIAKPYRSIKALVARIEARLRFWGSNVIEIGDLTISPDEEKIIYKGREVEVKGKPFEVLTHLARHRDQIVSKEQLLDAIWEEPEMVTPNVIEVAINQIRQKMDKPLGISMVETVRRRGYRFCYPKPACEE
Description: isothermal titration calorimetry. Type of assay: binding. Particulars: read-out: ITC^1 / Kd. The text has this:
isothermal titration calorimetry on HsrA (HP1043)
Background: ITC needs no label: the signal is the heat of the interaction.

The structures appear in SMILES notation.

Regarding `CC1=C(C(=O)OCc2ccccc2)C(c2cc(Br)cc(Br)c2O)C2=C(CCC(C)(C)C2=O)N1` (stereo not drawn) [HM4], the Kd is 4 µM.
The value for `CC1=C(C(=O)OCc2ccccc2)C(c2cc(Br)cc([N+](=O)[O-])c2O)C2=C(CCC(C)(C)C2=O)N1` (stereo not drawn) [HM6] was 5.4 µM; that for `CC1=C(C(=O)OCC(C)C)C(c2cc([N+](=O)[O-])ccc2O)C2=C(CC(C)(C)CC2=O)N1` (stereo not drawn) [MD1] was 3.5 µM; that for `CC1=C(C(=O)OCC(C)C)C(c2cccc([N+](=O)[O-])c2)C2=C(CC(C)(C)CC2=O)N1` (stereo not drawn) [MD2] was 16 µM.
Consider `CC1=C(C(=O)OCC(C)C)C(c2cc(Br)ccc2O)C2=C(CC(C)(C)CC2=O)N1` (stereo not drawn) [MD6], for which the Kd amounted to 25 µM.
Regarding `CC1=C(C(=O)OCC(C)C)C(c2cc(Br)cc([N+](=O)[O-])c2O)C2=C(CC(C)(C)CC2=O)N1` (stereo not drawn) [MD7], the Kd turned out to be 23 µM.
